The results in this text go back to US10844023B2 (Washington University, priority 2017, dated 2020).

This assay has as its system Mfn2 null MEFs. The experiment in a line: Mitochondrial elongation (aspect ratio) fusogenicity assay. The format is cell-based, mouse. Also on record: % long compare to B: dose or concentration left out as unconfirmed. The conditions noted are these: for % long compare to B: mitochondrial elongation relative to Cpd B (B01 = 100), compound overnight as printed (FIG. 48).

Take `CC(Sc1nnc(-c2ccccc2)n1-c1ccccc1)C(=O)Nc1sc2c(c1C(N)=O)CCC2` (stereo not shown) [1-H8, 2-{2-[(diphenyl-4H-1,2,4-triazol-3-yl)sulfanyl]propan-amido}-4H,5H,6H-cyclo-penta[b]thiophene-3-carboxamide]: the “% long compare to B” value (Mfn2 null MEFs) is on record as −4%.

With `O=C(NCCSCc1ccccc1)NC1CCCC1` [1-H9, 1-[2-(benzylsulfanyl)ethyl]-3-cyclopentylurea], under “Mfn2 null MEFs”, the “% long compare to B” value came to 29%.

Regarding `NC(=O)c1c(NC(=O)CSc2nnc(C3CC3)n2Cc2ccccc2)sc2c1CCCC2` [1-H11, 2-{2-[(4-benzyl-5-cyclopropyl-4H-1,2,4-triazol-3-yl)-sulfanyl]acetamido}-4,5,6,7-tetrahydro-1-benzothiophene-3-carboxamide], the “% long compare to B” value (Mfn2 null MEFs) stood at 15%.

Take `Cn1c(CC(=O)Nc2ccccc2)nnc1SCC(=O)Nc1sc2c(c1C(=O)NCc1ccccc1)CCCC2` [2-A1, N-benzyl-2-[2-({4-methyl-5-[(phenylcarbamoyl)methyl]-4H-1,2,4-triazol-3-yl}sulfanyl)acetamido]-4,5,6,7-tetrahydro-1-benzothiophene-3-carboxamide]: the “% long compare to B” value (Mfn2 null MEFs) is on record as 26%.

As for `CCn1c(CCc2ccccc2)nnc1SCC(=O)Nc1sc2c(c1C(N)=O)CCC(C)C2` (stereo not shown) [2-A4, 2-(2-{[4-ethyl-5-(2-phenylethyl)-4H-1,2,4-triazol-3-yl]sulfanyl}acetamido)-6-methyl-4,5,6,7-tetrahydro-1-benzothiophene-3-carboxamide], the “% long compare to B” value (Mfn2 null MEFs) is 3%.

For the compound `Cc1nnc(SCC(=O)Nc2sc3c(c2C(N)=O)CCC3)n1C` [2-A5, 2-{2-[(dimethyl-4H-1,2,4-triazol-3-yl)sulfanyl]acetamido}-4H,5H,6H-cyclopenta[b]thio-phene-3-carboxamide], for the setting “Mfn2 null MEFs”, the “% long compare to B” value is reported as 2%.

For the compound `O=C(Nc1cc(CSCCOC(=O)C2C3CCCCC32)ccn1)C1C2CCCCC21` (stereo not shown) [2-{[(2-{bicyclo[4.1.0]heptane-7-amido}pyridin-4-yl)methyl]sulfanyl}ethyl bicyclo[4.1.0]heptane-7-carboxylate], the “Aspect ratio (MEAN ± SEM)” value (Mfn2 null MEFs, overnight, treatment with 1 μM compound (footnote)) was determined as 4.8 ± 1.0. Moreover, under “rank order of aspect ratio among 44 soluble library compounds”, the “Fusogenicity Rank” value amounted to 10.

On to `CC(Sc1nnc(N2CCOCC2)n1Cc1ccccc1)C(=O)Nc1ccc2c(c1)OCO2` (stereo not shown) [A01, N-(2H-1,3-benzodioxol-5-yl)-2-{[4-benzyl-5-(morpholin-4-yl)-4H-1,2,4-triazol-3-yl]sulfanyl)propana-mide], for which the “% long compare to B” value (Mfn2 null MEFs) is recorded as −14%.

Consider `O=C(NCCCCc1ccccc1)Nc1ccc(F)cc1` [A2, 3-(4-fluorophenyl)-1-(4-phenylbutyl)urea], for which the “% long compare to B” value (Mfn2 null MEFs) was −4%.

On to `Cc1cccc(NC(=O)NCCCCc2ccccc2)c1` [A3, 3-(3-methylphenyl)-1-(4-phenylbutyl)urea], for which the “% long compare to B” value (Mfn2 null MEFs) is recorded as 32%.

Turning to `Cc1ccc(NC(=O)NCCCCc2ccccc2)cc1` [A4, 3-(4-methylphenyl)-1-(4-phenylbutyl)urea], the “% long compare to B” value (Mfn2 null MEFs) is listed as 75%.

Regarding `CC(Sc1ccc(Br)cc1)C(=O)Nc1ccc2c(c1)OCCO2` (stereo not shown) [A05, 2-[(4-bromophenyl)sulfanyl]-N-(2,3-dihydro-1,4-benzodioxin-6-yl)propanamide], the “% long compare to B” value (Mfn2 null MEFs) is −2%.

As for `Cc1ccccc1NC(=O)NCCCCc1ccccc1` [A5, 3-(2-methylphenyl)-1-(4-phenylbutyl)urea], where the note is “Mfn2 null MEFs”, the “% long compare to B” value was 7%.

Consider `Cc1ccc2c(c1)SC(C(=O)NCc1ccc(N3CCCN(C)CC3)nc1)C2` (stereo not shown) [A07, 6-methyl-N-{[6-(4-methyl-1,4-diazepan-1-yl)pyridin-3-yl]methyl}-2,3-dihydro-1-benzothiophene-2-carboxamide], for which, for the setting “Mfn2 null MEFs”, the “% long compare to B” value amounted to 14%.

For the compound `CC(Sc1nc(CN2CCOCC2)nc2ccccc12)C(=O)Nc1cccc(C(F)(F)F)c1` (stereo not shown) [A08, 2-({2-[(morpholin-4-yl)methyl]quinazolin-4-yl}sulfanyl)-N-[3-(trifluoromethyl)-phenyl]propanamide], the “% long compare to B” value (Mfn2 null MEFs) was 47%.
